Laboratory results as given in patent US20110201564A1, “SUBSTITUTED 7-SULFANYLMETHYL, 7-SULFINYLMETHYL AND 7-SULFONYLMETHYL INDOLES AND USE THEREOF” (BAYER SCHERING PHARMA AKTIENGESELLSCHAFT, priority 2008, published 2011).

How the values were obtained:
Format in all cases: cell-based
[1] = biological target: T1, progesterone receptor (PR) (Homo sapiens, UniProt P06401); assay: Cellular in vitro assay, GAL4-PR chimera luciferase reporter in CHO K1 cells (selectivity); conditions: antagonism vs progesterone; CHO K1 GAL4-PR LBD luciferase reporter
T1 construct: of the progesterone receptor (PR, amino acids 680-933); expressed in transfected cells; host or cells: CHO K1
T1 sequence (P06401 680-933): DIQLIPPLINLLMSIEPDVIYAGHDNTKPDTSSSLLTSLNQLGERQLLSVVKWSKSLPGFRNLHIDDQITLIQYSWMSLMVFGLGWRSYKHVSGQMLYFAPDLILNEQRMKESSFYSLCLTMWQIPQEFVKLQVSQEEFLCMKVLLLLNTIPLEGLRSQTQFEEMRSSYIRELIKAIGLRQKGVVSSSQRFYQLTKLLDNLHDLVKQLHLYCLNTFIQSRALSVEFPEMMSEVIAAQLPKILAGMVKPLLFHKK
Text: (§1) 1. Cellular In Vitro Assay to Determine the Inhibitory MR Activity and MR Selectivity Compared with Other Steroid Hormone Receptors
(§2) Antagonists of the human mineralocorticoid receptor (MR) are identified, and the activity of the compounds described herein is quantified with the aid of a recombinant cell line. The cell is originally derived from a hamster ovary epithelial cell (Chinese Hamster Ovary, CHO K1, ATCC: American Type Culture Collection, VA 20108, USA).
(§3) An established chimera system in which the ligand-binding domains of human steroid hormone receptors are fused to the DNA-binding domain of the yeast transcription factor GAL4 is used in this CHO K1 cell line. The GAL4-steroid hormone receptor chimeras produced in this way are cotransfected and stably expressed with a reporter construct in the CHO cells.
(§4) To generate the GAL4-steroid hormone receptor chimeras, the GAL4 DNA-binding domain (amino acids 1-147) from the vector pFC2-dbd (from Stratagene) is cloned with the PCR-amplified ligand-binding domains of the mineralocorticoid receptor (MR, amino acids 734-985), of the progesterone receptor (PR, amino acids 680-933) and of the androgen receptor (AR, amino acids 667-919) into the vector pIRES2 (from Clontech). The reporter construct, which comprises five copies of the GAL4 binding site upstream of a thymidine kinase promoter, leads to expression of firefly luciferase (Photinus pyralis) after activation and binding of the GAL4-steroid hormone receptor chimeras by the respective specific agonists aldosterone (MR), dexamethasone (GR), progesterone (PR) and dihydrotestosterone (AR).
(§5) The MR, PR and AR cells are plated out in medium (Optimem, 2.5% FCS, 2 mM glutamine, 10 mM HEPES) in 96- (or 384- or 1536-)well microtiter plates on the day before the assay and are kept in a cell incubator (96% humidity, 5% v/v CO2, 37° C.). On the day of the assay, the substances to be tested are taken up in the abovementioned medium and added to the cells. About 10 to 30 minutes after addition of the test substances, the respective specific agonists of the steroid hormone receptors are added. After a further incubation time of 5 to 6 hours, the luciferase activity is measured with the aid of a video camera. The measured relative light units as a function of the substance concentration result in a sigmoidal stimulation curve. The IC50 values are calculated with the aid of the GraphPad PRISM computer program (Version 3.02).

androgen receptor (AR) = biological target: T2, androgen receptor (AR) (Homo sapiens, UniProt P10275); assay: Cellular in vitro assay, GAL4-AR chimera luciferase reporter in CHO K1 cells (selectivity); conditions: antagonism vs dihydrotestosterone; CHO K1 GAL4-AR LBD luciferase reporter
T2 construct: of the androgen receptor (AR, amino acids 667-919); expressed in transfected cells; host or cells: CHO K1
T2 sequence (P10275 668-920): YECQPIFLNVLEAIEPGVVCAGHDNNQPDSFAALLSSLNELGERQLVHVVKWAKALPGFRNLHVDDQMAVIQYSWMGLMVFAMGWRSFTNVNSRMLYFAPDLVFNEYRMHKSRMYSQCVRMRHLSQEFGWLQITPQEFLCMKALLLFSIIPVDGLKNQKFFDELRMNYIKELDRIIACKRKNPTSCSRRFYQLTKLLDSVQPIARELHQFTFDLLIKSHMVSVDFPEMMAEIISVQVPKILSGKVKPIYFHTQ
Text: as §1, §2, §3, §4, §5

[2] = biological target: T3, human mineralocorticoid receptor (MR) (Homo sapiens, UniProt P08235); assay: Cellular in vitro assay, GAL4-MR chimera luciferase reporter in CHO K1 cells (inhibitory MR activity); conditions: antagonism vs aldosterone; CHO K1 GAL4-MR LBD luciferase reporter
T3 construct: expressed in transfected cells; host or cells: CHO K1
T3 sequence (P08235 734-984 limits assumed): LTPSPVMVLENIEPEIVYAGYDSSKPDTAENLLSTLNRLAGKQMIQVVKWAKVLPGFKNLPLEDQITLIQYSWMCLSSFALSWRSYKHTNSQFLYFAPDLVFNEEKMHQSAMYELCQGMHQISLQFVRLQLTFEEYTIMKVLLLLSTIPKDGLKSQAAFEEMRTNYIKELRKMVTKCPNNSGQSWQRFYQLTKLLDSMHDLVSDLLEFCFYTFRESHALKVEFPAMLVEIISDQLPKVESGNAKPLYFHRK
Text: as §1, §2, §3, §4, §5

IC50 [1]	IC50 (androgen receptor (AR))	IC50 [2]	Structure (SMILES)
9160 nM	2160 nM	20 nM	CS(=O)(=O)Cc1cccc2c(C3(C4CC4)CCc4cc(F)ccc43)c[nH]c12 (single isomer, unassigned) [Example 107-1, 3-(1-Cyclopropyl-5-fluoro-2,3-dihydro-1H-inden-1-yl)-7-[(methylsulfonyl)methyl]-1H-indole]
6900 nM	–	400 nM	CS(=O)(=O)Cc1cccc2c(C(c3ccc(C(F)(F)F)cc3)C3CC3(F)F)c[nH]c12 (mixture of isomers) [Example 324, 3-{(2,2-Difluorocyclopropyl)[4-(trifluoromethyl)phenyl]methyl}-7-[(methylsulfonyl)methyl]-1H-indole]
1930 nM	2030 nM	100 nM	CSCc1cc(F)cc2c(C(C)(c3ccc(Cl)cc3)C3CC3C#N)c[nH]c12 (stereo not shown) [Example 179, 2-[1-(4-Chlorophenyl)-1-{5-fluoro-7-[(methylsulfanyl)methyl]-1H-indol-3-yl}ethyl]cyclopropanecarbonitrile]
4810 nM	3760 nM	40 nM	CS(=O)(=O)Cc1cc(F)cc2c(C(CCC#N)c3ccc(Cl)cc3Cl)c[nH]c12 (stereo not shown) [Example 63, 4-(2,4-Dichlorophenyl)-4-{5-fluoro-7-[(methylsulfonyl)methyl]-1H-indol-3-yl}butanonitrile]
1510 nM	1120 nM	16 nM	CSCc1cccc2c(C(CCC#N)c3ccc(Cl)cc3F)c[nH]c12 (single isomer, unassigned) [Example 38-1, 4-(4-Chloro-2-fluorophenyl)-4-{7-[(methylsulfanyl)methyl]-1H-indol-3-yl}butanonitrile]
10000 nM	6600 nM	270 nM	CCC(CCO)(c1ccc(Cl)cc1)c1c[nH]c2c(CSC)cccc12 (stereo not shown) [Example 140, 3-(4-Chlorophenyl)-3-{7-[(methylsulfanyl)methyl]-1H-indol-3-yl}pentan-1-ol]
10000 nM	5240 nM	460 nM	CSCc1cccc2c(C(c3ccc(F)cc3)c3ccc(Cl)cc3)c[nH]c12 (stereo not shown) [Example 100, 3-[(4-Chlorophenyl)(4-fluorophenyl)methyl]-7-[(methylsulfanyl)methyl]-1H-indole]
5230 nM	9030 nM	39 nM	CSCc1cc(F)cc2c(C(c3ccc(C)cc3)C3CC3C#N)c[nH]c12 (stereo not shown) [Example 260, 2-[{5-Fluoro-7-[(methylsulfanyl)methyl]-1H-indol-3-yl}(4-methylphenyl)methyl]cyclopropane-carbonitrile]
3910 nM	5070 nM	190 nM	CS(=O)(=O)Cc1cccc2c(C(CCC#N)c3ccc(C(F)(F)F)cc3F)c[nH]c12 (stereo not shown) [Example 68, 4-[2-Fluoro-4-(trifluoromethyl)phenyl]-4-{7-[(methylsulfonyl)methyl]-1H-indol-3-yl}butanonitrile]
7750 nM	9660 nM	250 nM	CS(=O)(=O)Cc1cccc2c(C(CCCC#N)c3ccc(Cl)cc3)c[nH]c12 (stereo not shown) [Example 70, 5-(4-Chlorophenyl)-5-{7-[(methylsulfonyl)methyl]-1H-indol-3-yl}pentanonitrile]
2720 nM	4760 nM	29 nM	CCC(CCC#N)(c1ccc(Cl)cc1)c1c[nH]c2c(C[S+](C)[O-])cccc12 (mixture of isomers) [Example 163, 4-(4-Chlorophenyl)-4-{7-[(methylsulfinyl)methyl]-1H-indol-3-yl}hexanonitrile]
8560 nM	5010 nM	100 nM	CSCc1cccc2c(C(c3ccc(F)cc3)c3ccc(Cl)cc3F)c[nH]c12 (stereo not shown) [Example 104, 3-[(4-Chloro-2-fluorophenyl)(4-fluorophenyl)methyl]-7-[(methylsulfanyl)methyl]-1H-indole]
4500 nM	2520 nM	30 nM	CC(c1ccc(Cl)cc1F)(c1c[nH]c2c(CS(C)(=O)=O)cccc12)C1CC1 (single isomer, unassigned) [Example 111-1, 3-[1-(4-Chloro-2-fluorophenyl)-1-cyclopropylethyl]-7-[(methylsulfonyl)methyl]-1H-indole]
6590 nM	5220 nM	420 nM	CS(=O)(=O)Cc1cccc2c(C(CCC#N)c3ccc4ccccc4c3)c[nH]c12 (stereo not shown) [Example 69, 4-{7-[(Methylsulfonyl)methyl]-1H-indol-3-yl}-4-(naphthalen-2-yl)butanonitrile]
6660 nM	5250 nM	59 nM	CS(=O)(=O)Cc1cccc2c(C(c3ccc(Cl)cc3Cl)C3CC3(F)F)c[nH]c12 (single isomer, unassigned) [Example 325-2, 3-[(2,4-Dichlorophenyl)(2,2-difluorocyclopropyl)methyl]-7-[(methylsulfonyl)methyl]-1H-indole]
5810 nM	7530 nM	210 nM	C[S+]([O-])Cc1cc(F)cc2c(C(CCC#N)c3ccc(Cl)cc3Cl)c[nH]c12 (mixture of isomers) [Example 82, 4-(2,4-Dichlorophenyl)-4-{5-fluoro-7-[(methylsulfinyl)methyl]-1H-indol-3-yl}butanonitrile]
12800 nM	7090 nM	60 nM	CS(=O)(=O)Cc1cccc2c(C(CCC#N)c3ccc(Cl)cc3Cl)c[nH]c12 (stereo not shown) [Example 62, 4-(2,4-Dichlorophenyl)-4-{7-[(methylsulfonyl)methyl]-1H-indol-3-yl}butanonitrile]
1980 nM	2920 nM	78 nM	CSCc1cc(F)cc2c(C(CCC#N)c3ccc(Cl)cc3)c[nH]c12 (stereo not shown) [Example 43, 4-(4-Chlorophenyl)-4-{5-fluoro-7-[(methylsulfanyl)methyl]-1H-indol-3-yl}butanonitrile]
8120 nM	2730 nM	42 nM	CS(=O)(=O)Cc1cccc2c(C3(C4CC4)CCOc4cc(F)cc(F)c43)c[nH]c12 (stereo not shown) [Example 219, 3-(4-Cyclopropyl-5,7-difluoro-3,4-dihydro-2H-chromen-4-yl)-7-[(methylsulfonyl)methyl]-1H-indole]
4810 nM	6570 nM	210 nM	C[S+]([O-])Cc1cccc2c(C(c3ccc(Cl)cc3)c3ccc(Cl)cc3)c[nH]c12 (racemic) [Example 296, 3-[Bis(4-chlorophenyl)methyl]-7-[(methylsulfinyl)methyl]-1H-indole]
5780 nM	1940 nM	77 nM	CSCc1cccc2c(C(C)(c3ccc(C(F)(F)F)cc3)C3CC3C#N)c[nH]c12 (stereo not shown) [Example 177, 2-(1-{7-[(Methylsulfanyl)methyl]-1H-indol-3-yl}-1-[4-(trifluoromethyl)phenyl]ethyl)cyclopropanecarbonitrile]
10000 nM	–	190 nM	C[S+]([O-])Cc1cccc2c(C(c3c(F)cc(Cl)cc3F)C3CC3)c[nH]c12 (mixture of isomers) [Example 238, 3-[(4-Chloro-2,6-difluorophenyl)(cyclopropyl)methyl]-7-[(methylsulfinyl)methyl]-1H-indole]
